# Source: PubChem BioAssay (NCI)
# “And” between values parts separate entries of the source, which are not always exact repeats. Equal values may be shown once.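 Step 1: Grow cells in 96-well plates. Step 2: Expose to compound for 48 hours at 5 concentrations. Step 3: Interpolate endpoints linearly; if unreached, use highest concentration. At the GI50, growth is halved. At the TGI there is no net growth.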
# What was measured:
# Assay in all cases: DTP human tumour cell line panel, 48 h
# A498 renal = test system: A498 renal
# DU-145 prostate = test system: DU-145 prostate
# EKVX NSCLC = test system: EKVX NSCLC
# HOP-92 NSCLC = test system: HOP-92 NSCLC
# IGROV1 ovarian = test system: IGROV1 ovarian
# M14 melanoma = test system: M14 melanoma
# MDA-MB-435 = test system: MDA-MB-435
# NCI-H226 lung = test system: NCI-H226 lung
# SF-295 CNS = test system: SF-295 CNS
# SK-MEL-2 melanoma = test system: SK-MEL-2 melanoma
SMILES,GI50 (A498 renal),TGI (A498 renal),GI50 (DU-145 prostate),TGI (DU-145 prostate),GI50 (EKVX NSCLC),TGI (EKVX NSCLC),GI50 (HOP-92 NSCLC),TGI (HOP-92 NSCLC),GI50 (IGROV1 ovarian),TGI (IGROV1 ovarian),GI50 (M14 melanoma),TGI (M14 melanoma),GI50 (MDA-MB-435),TGI (MDA-MB-435),GI50 (NCI-H226 lung),TGI (NCI-H226 lung),GI50 (SF-295 CNS),TGI (SF-295 CNS),GI50 (SK-MEL-2 melanoma),TGI (SK-MEL-2 melanoma)
CC[C@]12C=CCN3CC[C@@]4(c5ccc(OC)cc5N(C)[C@H]4[C@@](O)(C(=O)OC)[C@@H]1OC(=O)CCC[P+](c1ccccc1)(c1ccccc1)c1ccccc1)[C@@H]32,1.71 µM and 1.97 µM,4.87 µM and 5.7 µM,1.09 µM and 0.768 µM,6.47 µM and 11.8 µM,1.17 µM and 2.73 µM,10 µM and 18.2 µM,0.0934 µM and 0.241 µM,0.78 µM and 0.946 µM,0.235 µM and 0.394 µM,0.923 µM and 1.61 µM,0.762 µM and 1.05 µM,2.93 µM and 2.85 µM,0.239 µM and 0.348 µM,0.879 µM and 1.23 µM,1.91 µM and 1.93 µM,8.62 µM and 12.4 µM,1.49 µM and 2.22 µM,4.66 µM and 5.65 µM,0.441 µM and 0.356 µM,1.52 µM and 1.27 µM
Cn1c(=O)c2c(nc(Nc3cc(=O)[nH]c(=O)[nH]3)n2Cc2ccccc2)n(C)c1=O,7.97 µM,> 100 µM,> 100 µM,> 100 µM,56.6 µM,> 100 µM,7.51 µM,> 100 µM,> 100 µM,> 100 µM,> 100 µM,> 100 µM,> 100 µM,> 100 µM,> 100 µM,> 100 µM,> 100 µM,> 100 µM,> 100 µM,> 100 µM
COc1cc(C(=O)c2cc(C)c3[nH]c4ccc(Cl)cc4c3c2C)cc(OC)c1OC,0.0242 µM,0.0805 µM,0.0459 µM,3.6 µM,0.254 µM,23.4 µM,0.156 µM,4.65 µM,0.0438 µM,12.3 µM,0.033 µM,12.4 µM,0.0249 µM,0.0733 µM,0.679 µM,18.3 µM,0.0284 µM,0.303 µM,0.575 µM,17.3 µM
CC(C)(C)C(=O)OCOP(=O)(OCOC(=O)C(C)(C)C)C1CCCN(O)C1=O (configuration not stated),,,0.831 µM,> 100 µM,0.657 µM,12.5 µM,0.695 µM,51.5 µM,0.393 µM,2.73 µM,0.693 µM,14.1 µM,0.955 µM,22.5 µM,0.996 µM,9.62 µM,3.9 µM,> 100 µM,1.55 µM,8.76 µM
O=C(CCCn1ccnc1[N+](=O)[O-])NCCn1cncc1[N+](=O)[O-],,> 100 µM,,> 100 µM,,> 100 µM,,> 100 µM,,> 100 µM,,> 100 µM,,> 100 µM,,> 100 µM,,> 100 µM,,> 100 µM
CCOC(=O)/C=C/C(C(=O)/C=C/c1ccc(OC2CCCCO2)c(OC)c1)=C(O)\C=C\c1ccc(OC2CCCCO2)c(OC)c1 (configuration not stated),18.3 µM,35.7 µM,7.01 µM,42.6 µM,10.7 µM,> 100 µM,20.2 µM,58.2 µM,2.85 µM,6.68 µM,3.48 µM,15.3 µM,3.23 µM,13.6 µM,12.9 µM,34.7 µM,10.7 µM,42.8 µM,3.27 µM,15.2 µM
Oc1ccc(Cl)cc1Cc1cc(Cl)cc(Cl)c1O,8.73 µM,29.2 µM,4.94 µM,53.7 µM,3.75 µM,62.5 µM,1.19 µM,6.42 µM,6.31 µM,28.9 µM,4.61 µM,23 µM,4.35 µM,83.2 µM,12.7 µM,37.2 µM,6.66 µM,57.5 µM,5.53 µM,29 µM
COc1ccc(C(=O)c2cc(OC)c(C)c(OC)c2)cc1OC(=O)CCl,2.09 µM,7.39 µM,0.322 µM,18.2 µM,3.6 µM,> 100 µM,3.22 µM,58.5 µM,1.19 µM,> 100 µM,0.0693 µM,12.2 µM,0.0265 µM,0.0902 µM,8 µM,> 30.6 µM,0.764 µM,30.7 µM,0.671 µM,66.1 µM
O=c1n(CC2CO2)c(=O)n(CC2CO2)c(=O)n1CC1CO1 (configuration not stated),12.2 µM,83.9 µM and 26.5 µM,11 µM and 3.22 µM,66.2 µM and 127 µM and 37.3 µM,,175 µM,18 µM and 7.22 µM,63.7 µM and 111 µM and > 100 µM,24.9 µM and 7.31 µM,96 µM and > 100 µM,13.2 µM and 6.77 µM,57.3 µM and > 100 µM,,63.8 µM and > 100 µM,22.6 µM and 10.9 µM,78.3 µM and 103 µM and 45.9 µM,4.18 µM,34.1 µM and 126 µM and > 100 µM,36.9 µM and 33 µM,215 µM and > 100 µM
CC(=O)OC1Oc2ccccc2-c2oc(=O)c(-c3cc(=O)oc4cc(O)ccc34)cc21 (configuration not stated),13.3 µM,40.4 µM,19.4 µM,50.5 µM,17.5 µM,49.3 µM,14.1 µM,40.9 µM,20.8 µM,83.6 µM,26.7 µM,83.9 µM,18.4 µM,54.4 µM,27.1 µM,67.3 µM,8.74 µM,25.2 µM,19.2 µM,89 µM
O=C(Nc1ccc(OS(=O)(=O)c2ccccc2)cc1)C12CC3CC(CC(C3)C1)C2,2.04 µM,48.7 µM,> 100 µM,> 100 µM,,,1.87 µM,> 100 µM,> 100 µM,> 100 µM,7.2 µM,> 100 µM,> 100 µM,> 100 µM,27.7 µM,> 100 µM,8.27 µM,> 100 µM,> 100 µM,> 100 µM
CCC[CH2][Sn]([CH2]CCC)([CH2]CCC)[O]C(=O)CC,0.12 µM,0.256 µM,0.136 µM,0.271 µM,0.121 µM,0.335 µM,0.137 µM,0.429 µM,0.167 µM,0.397 µM,0.167 µM,0.343 µM,0.178 µM,0.458 µM,,,0.238 µM,0.746 µM,0.186 µM,0.37 µM
